From BindingDB's records for doi:10.1074/jbc.M110.156463 (Merck Research Laboratories, 2011)
pEC50: −log10 of the molar value.

biological target: T1, 3-phosphoinositide-dependent protein kinase 1 (Homo sapiens, UniProt O15530); test: Proliferation Assay
T1 sequence (O15530 whole entry): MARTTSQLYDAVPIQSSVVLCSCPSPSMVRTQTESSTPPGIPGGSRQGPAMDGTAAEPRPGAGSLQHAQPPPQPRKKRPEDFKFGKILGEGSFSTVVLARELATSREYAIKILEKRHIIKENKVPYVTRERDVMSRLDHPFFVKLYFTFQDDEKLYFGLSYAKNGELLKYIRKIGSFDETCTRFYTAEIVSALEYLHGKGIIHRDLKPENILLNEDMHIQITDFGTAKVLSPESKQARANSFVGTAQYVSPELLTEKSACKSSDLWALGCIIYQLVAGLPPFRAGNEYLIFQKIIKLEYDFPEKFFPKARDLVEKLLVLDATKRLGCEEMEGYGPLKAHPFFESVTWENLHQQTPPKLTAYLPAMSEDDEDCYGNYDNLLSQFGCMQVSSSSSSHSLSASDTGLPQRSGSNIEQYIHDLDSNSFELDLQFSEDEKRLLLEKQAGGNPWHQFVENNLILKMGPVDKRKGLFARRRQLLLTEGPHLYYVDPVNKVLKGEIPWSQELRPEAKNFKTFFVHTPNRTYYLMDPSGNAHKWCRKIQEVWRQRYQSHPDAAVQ
Procedure: Enzyme potency (PDK1 EC50)was determined using recombinant, purified full-length human PDK1 enzyme and AKT-Thr-308-tide as substrate.

Row | SMILES | pEC50
1 | Cc1[nH]nc2c1c(=O)n(CCCN)c1ccc(Cl)cc21 | 8.05
2 | CC(C)(C)c1nc2c3ccc(F)cc3c3c(=O)[nH]ccc3c2[nH]1 [Jak Inhibitor 1] | 9.00

Next, values leading:

Row | pEC50 | SMILES
3 | 7.59 | O=C(NCCCNc1nc(Nc2cccc(NC(=O)N3CCCC3)c2)ncc1I)c1cccs1 [N-{3-[(5-iodo-4-{[3-(thiophen-2-ylformamido)propyl]amino}pyrimidin-2-yl)amino]phenyl}pyrrolidine-1-carboxamide]
4 | 8.05 | CC(Nc1nc2c(C#CC3CC3)c[nH]c(=O)c2c2cc(-c3cn[nH]c3)ccc12)C(C)(C)C (stereo unspecified) [PDK1 inhibitor, 2]
5 | 6.70 | COc1ccc(C#Cc2ccc3ncc4ncn(-c5ccc(CCN)cc5)c4c3c2)cc1 [PDK1 inhibitor, 4]
6 | 7.92 | Cc1[nH]nc(-c2nc3cc4c[nH][nH]c4cc3n2)c1C(=O)NC1CCNCC1 [PDK1 inhibitor, 6]
